In assay [1] the target is T1, HpIMPDH (Helicobacter pylori, UniProt P56088).
T1 construct: His tag; made in house; host or cells: E. coli Rosetta(DE3) pLysS, pET-28a(+)
The experiment in a line: Mechanism of HpIMPDH inhibition, kinetic studies with varying IMP or NAD+ (Lineweaver-Burk). Format: biochemical. The settings on record: for Conclusion: type of inhibition versus IMP / Conclusion: type of inhibition versus NAD+: Table S4. From the text: There are three important mechanisms of enzyme inhibition, viz. competitive, non-competitive and uncompetitive inhibition. […] The initial velocity data were plotted using Lineweaver-Burk equation using GraphPad Prism.
The data is plotted using the Lineweaver-Burk equation.

Assay [2] concerns the target T1, HpIMPDH. The assay is described as follows: HpIMPDH enzyme inhibition assay (NADH fluorescence). Format: biochemical. On the procedure:
To calculate the IC50 values, the initial velocity of the reaction is plotted against concentrations of the small molecule inhibitor, and the data is fitted with the Hill equation.
Similar to enzyme kinetic studies, these were also determined by monitoring NADH concentration through the fluorescence measurement. In the presence of IMPDH inhibitor, decreased catalytic activity of the enzyme reduces the formation of NADH. […] The production of NADH was monitored by measuring fluorescence at 440 nm when excited at 340 nm using PerkinElmer EnVision Multilabel Reader (Perkin Elmer, Inc., MA, USA) at 37 °C. In these assays C91 was used as a positive control.
IC50 values for all compounds were calculated with the help of software GraphPad Prism. The equation applied was:2 Y=Bottom+(Top−Bottom)/1+10^((LogIC50−X)∗HillSlope)

The test system of assay [3] is AgIMPDH. Set-up: method as in ref 5 (a number printed in a supplementary file, which may have a reference list of its own: not looked up in the article's list). The settings on record: AgIMPDH ref 5; cited from earlier work.
For assay [4], the system named is TfIMPDH. The settings on record: TfIMPDH ref 6; cited from earlier work.
For assay [5], the system named is SpIMPDH. Set-up: method as in ref 9 (a number printed in a supplementary file, which may have a reference list of its own: not looked up in the article's list). As to conditions: SpIMPDH ref 9; cited from earlier work.
In assay [6] the target is T1, HpIMPDH. Format: biochemical. As to conditions: 100 nM enzyme. From the text:
Before carrying out enzymatic assays, it is important to determine the enzyme activity.
The initial velocity data was fitted using Michaelis–Menten equation (1) with the help of GraphPad Prism to calculate enzyme kinetic parameters.1 V=Vmax[S]/KM+[S] where, V is velocity, Vmax is maximum velocity, [S] is substrate concentration, KM is Michaelis–Menten constant.

For assay [7], the system named is PaIMPDH. As to conditions: PaIMPDH ref 7; cited from earlier work.
In assay [8] the target is T1, HpIMPDH. The arrangement: method as in ref 3 (a number printed in a supplementary file, which may have a reference list of its own: not looked up in the article's list). The settings on record: previously reported HpIMPDH data ref 3; cited from earlier work.
In assay [9] the test system is HsIMPDH-I. Set-up: method as in ref 4 (a number printed in a supplementary file, which may have a reference list of its own: not looked up in the article's list). As to conditions: HsIMPDH-I ref 4; cited from earlier work.
Assay [10] concerns CpIMPDH. The arrangement: method as in ref 8 (a number printed in a supplementary file, which may have a reference list of its own: not looked up in the article's list). The settings on record: CpIMPDH ref 8; cited from earlier work.
The subject of assay [11] is HsIMPDH-II. Set-up: method as in ref 4 (a number printed in a supplementary file, which may have a reference list of its own: not looked up in the article's list). As to conditions: HsIMPDH-II ref 4; cited from earlier work.
Assay [12] deals with BbIMPDH. The arrangement: method as in ref 10 (a number printed in a supplementary file, which may have a reference list of its own: not looked up in the article's list). As to conditions: BbIMPDH ref 10; cited from earlier work.
Where [13] appears, read: IC50, HpIMPDH inhibition, 100 nM HpIMPDH, NAD+ 300 µM, IMP 250 µM.

Read-outs that look alike come from different tables or passages of the source.

T1 sequence (P56088 whole entry): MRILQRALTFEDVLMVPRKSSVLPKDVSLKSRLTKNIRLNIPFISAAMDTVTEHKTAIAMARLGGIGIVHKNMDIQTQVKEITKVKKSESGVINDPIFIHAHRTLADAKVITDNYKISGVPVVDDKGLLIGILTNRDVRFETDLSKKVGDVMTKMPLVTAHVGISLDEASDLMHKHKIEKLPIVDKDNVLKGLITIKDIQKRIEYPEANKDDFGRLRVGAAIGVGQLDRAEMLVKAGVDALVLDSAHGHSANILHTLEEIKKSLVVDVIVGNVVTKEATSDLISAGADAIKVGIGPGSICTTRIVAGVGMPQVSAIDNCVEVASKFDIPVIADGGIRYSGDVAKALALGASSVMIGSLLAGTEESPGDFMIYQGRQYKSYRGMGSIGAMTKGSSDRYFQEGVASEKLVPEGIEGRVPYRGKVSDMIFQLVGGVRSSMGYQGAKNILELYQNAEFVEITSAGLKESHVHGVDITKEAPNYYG

`O=C(Cn1c(-c2ccccn2)nc2ccccc21)Nc1ccc2ccccc2c1` [Compound 1, reference compound]: in assay [1], the “Mechanism of HpIMPDH inhibition against both IMP and NAD+” value is given as “uncompetitive”; the “Conclusion: type of inhibition versus IMP” value is “Un-competitive inhibition”; the “Conclusion: type of inhibition versus NAD+” value is listed as “Un-competitive inhibition”. In addition, in assay [2] (setting [13]), 155 ± 82 nM corresponded to half-maximal inhibition (IC50).
Take `O=C(Cn1cc(C(=O)Nc2cccnc2)c2ccccc21)Nc1ccc(Br)cc1` [Compound 2]: in assay [1], the “Mechanism of HpIMPDH inhibition against both IMP and NAD+” value was “noncompetitive inhibition”; the “Conclusion: type of inhibition versus IMP” value is on record as “Non-competitive inhibition”; the “Conclusion: type of inhibition versus NAD+” value is recorded as “Non-competitive inhibition”. Further, the “IC50 value (in words)” value in [2] (HpIMPDH) is reported as “micromolar range”. The same compound came in with a concentration for half-maximal inhibition (IC50) in assay [2] (setting [13]) of 1890 ± 420 nM. Besides, the half-inhibitory concentration (IC50) in [2] (IC50, inhibition profile of indole based compounds, Table S3) turned out to be 1880 nM.
Regarding `NC(=O)c1ccc[n+]([C@@H]2O[C@H](COP(=O)([O-])OP(=O)(O)OC[C@H]3O[C@@H](n4cnc5c(N)ncnc54)[C@H](O)[C@@H]3O)[C@@H](O)[C@H]2O)c1` [NAD^+], the Km in assay [3] is 280 ± 24.7 µM; in assay [4], 150 ± 30 µM; in assay [5], 1180 ± 400 µM; in assay [6] (varying NAD+, IMP 500 µM constant), 76.4 ± 1.09 µM; in assay [7], 1760 ± 109 µM; in [8], 73 ± 6 µM. Moreover, the Km in assay [9] was 32 ± 3.4 µM; in [10], 150 ± 20 µM; in assay [11], 46 ± 2.8 µM; in assay [12], 1100 ± 160 µM. Also, the “kcat of HpIMPDH for the substrate” value in assay [6] was 5.96 ± 0.53 S^−1.

A word on the IC50: it is the concentration that gives 50% inhibition. High values mean weaker potency, low ones greater potency. By Km is commonly meant the substrate concentration at which the rate is half of its maximum.

(Values after PMC6336804, “Identification of selective inhibitors of Helicobacter pylori IMPDH as a targeted therapy for the infection” (Scientific Reports, 2019).)
